Source: paper PMC10794137, “A new antibiotic traps lipopolysaccharide in its intermembrane transporter” (Nature, 2024)
Values joined by “and” are separate entries in the source; they are usually repeats but may differ in a detail not shown here. Equal values may be shown once. Read-outs that look alike come from different tables or passages of the source.

Columns and labels:
[1] = system: His-tagged LptB2FGC (ablLptB2FGC); details: SPA
Protocol: The binding of radioligand [^3H]-RO7223280 to ablLptB2FG and ablLptB2FGC was measured by bead-based SPA. All steps were performed in SEC buffer (20 mM Tris pH 7.5, 300 mM NaCl, 5% glycerol, 0.5 mM TCEP, 0.05% DDM ± 10 µM E.coli J5 LPS(Rc) […] (Enzo Life Sciences)) and at 4 °C unless otherwise indicated. Purified protein was first incubated with Copper PVT HIS-tag beads (Perkin Elmer) for 1.5 h under gentle rotation. Twelve radioligand concentrations were added to the PVT–protein mix and incubated for another 30 min. […] The SPA plates were sealed (TopSeal, Perkin Elmer) and stored at 4 °C overnight. Before the measurement, plates were mixed on a shaker for 20 min, 750 rpm at room temperature and the seal was thoroughly wiped with antistatic spray to reduce electrostatic events. Scintillation data were recorded with a Topcount NXT C384, in the form of three independent replicates each consisting of three technical triplicates. Specific binding was calculated by subtracting non-specific binding raw counts from total binding raw counts. The dissociation constant Kd and standard deviation of the three independent replicates are reported and were calculated by the GraphPad Prism ‘One site – specific binding’ tool.

[2] = target: His-tagged LptB2FG (ablLptB2FG) (Acinetobacter baylyi, UniProt Q6FFD6+Q6FFD7); experiment: Radioligand binding SPA, LptB2FG
Protocol: The binding of radioligand [^3H]-RO7223280 to ablLptB2FG and ablLptB2FGC was measured by bead-based SPA. All steps were performed in SEC buffer (20 mM Tris pH 7.5, 300 mM NaCl, 5% glycerol, 0.5 mM TCEP, 0.05% DDM ± 10 µM E.coli J5 LPS(Rc) [sequence] (Enzo Life Sciences)) and at 4 °C unless otherwise indicated. Purified protein was first incubated with Copper PVT HIS-tag beads (Perkin Elmer) for 1.5 h under gentle rotation. Twelve radioligand concentrations were added to the PVT–protein mix and incubated for another 30 min. […] The SPA plates were sealed (TopSeal, Perkin Elmer) and stored at 4 °C overnight. Before the measurement, plates were mixed on a shaker for 20 min, 750 rpm at room temperature and the seal was thoroughly wiped with antistatic spray to reduce electrostatic events. Scintillation data were recorded with a Topcount NXT C384, in the form of three independent replicates each consisting of three technical triplicates. Specific binding was calculated by subtracting non-specific binding raw counts from total binding raw counts. The dissociation constant Kd and standard deviation of the three independent replicates are reported and were calculated by the GraphPad Prism ‘One site – specific binding’ tool.

[3] = system: Acinetobacter baylyi ΔlpxM; experiment: MIC by broth microdilution, A. baylyi ΔlpxM; assay type: cell-based
Protocol: (§1) Culture, genetic manipulation and MIC measurements of A. baylyi ADP1 were conducted according to previously reported procedures[46],[51]. Point mutants were constructed in a two-step procedure following ref. [52] with the introduction and excision of the integration cassette at codon 66 of pepA, wherein the excising fragment of otherwise wild-type chromosomal DNA sequence from codon 406 of pepA to codon 193 of lptG bore the desired mutation and the resulting clones were screened by amplicon sequencing from codon 81 of HolC to codon 501 of GpmI, whereas lpxM deletion was achieved following the same procedure except that the integration cassette insertion and excision removed codons 79–279 of lpxM to avoid interference with neighbouring and overlapping genes that a larger deletion may risk and replaced codon 78 with an ochre stop codon to prevent a readthrough resulting in an aberrant fusion, with the excising fragment sequence spanning from codon 211 of sppA to codon 497 of ComA and verified by amplicon sequencing from codon 94 of MhpC to codon 327 of ComA as well as by absence of a PCR product corresponding to a region spanning codons 79 to 279 of lpxM to check for duplications. A deletion of the lon protease was made in the same manner to produce the stain used for expression and purification of LptB2FG to mimic the BL21 strain of E. coli used in the rest of purifications, for which the region encompassing 72 base pairs (bp) upstream of the lon start codon and 1 bp downstream of the lon stop codon was excised after being replaced with the same integration cassette, yielding a markerless deletion, with the excising fragment sequence spanning from codon 491 of ArnT to codon 40 of 45_DOPA_Dioxygenase and verified by amplicon sequencing spanning from codon 322 of ArnT to codon 221 of 45_DOPA_Dioxygenase as well as by absence of a PCR product corresponding to a region spanning from codons 328 to 768 of lon to check for duplications. Following amplicon confirmation, three validated isolates of each constructed mutant were tested for susceptibility to a panel of antibiotics with […] known mechanisms of action as a further validation step to ensure congruence of phenotypes across replicates, which was confirmed in all cases and one of the validated replicates was later used for MIC measurements reported here.
(§2) MIC determinations were performed by broth microdilution in line with CLSI guidelines (CLSI M07-A11 2018). Bacterial inocula were prepared by diluting overnight liquid cultures in LB. Antibacterial panels containing antibacterial solutions were inoculated with an appropriate volume of inoculum to give a final inoculum of about 5 × 10^5 c.f.u. ml^−1 and desired test concentrations of antibacterial agents in standard 96-well plates with 0.1 ml of culture per well. The test plates were incubated for 20–24 h and optical density (OD600) was recorded using a plate reader. MIC values corresponded to the lowest compound concentration inhibiting bacterial growth beyond which OD ceased to decrease.

[4] = system: Acinetobacter baylyi ADP1 wild type; experiment: microbe, parasite or virus in culture; assay type: cell-based; details: A. baylyi wild type
Protocol: as §1, §2

[5] = Acinetobacter baylyi, ADP1WILDTYPE, read-out: MIC

His-tagged LptB2FG (ablLptB2FG), sequence (Q6FFD7 1-366): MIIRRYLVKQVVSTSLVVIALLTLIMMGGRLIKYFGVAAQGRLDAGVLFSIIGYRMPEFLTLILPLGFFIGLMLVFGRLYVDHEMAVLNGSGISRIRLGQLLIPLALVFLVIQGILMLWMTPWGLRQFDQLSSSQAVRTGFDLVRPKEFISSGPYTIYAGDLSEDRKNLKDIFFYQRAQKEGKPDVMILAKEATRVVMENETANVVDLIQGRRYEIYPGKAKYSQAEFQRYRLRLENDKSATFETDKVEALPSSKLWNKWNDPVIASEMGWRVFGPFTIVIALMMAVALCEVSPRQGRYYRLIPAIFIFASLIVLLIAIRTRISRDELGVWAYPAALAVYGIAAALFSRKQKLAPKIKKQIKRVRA
His-tagged LptB2FG (ablLptB2FG), sequence (Q6FFD6 1-356): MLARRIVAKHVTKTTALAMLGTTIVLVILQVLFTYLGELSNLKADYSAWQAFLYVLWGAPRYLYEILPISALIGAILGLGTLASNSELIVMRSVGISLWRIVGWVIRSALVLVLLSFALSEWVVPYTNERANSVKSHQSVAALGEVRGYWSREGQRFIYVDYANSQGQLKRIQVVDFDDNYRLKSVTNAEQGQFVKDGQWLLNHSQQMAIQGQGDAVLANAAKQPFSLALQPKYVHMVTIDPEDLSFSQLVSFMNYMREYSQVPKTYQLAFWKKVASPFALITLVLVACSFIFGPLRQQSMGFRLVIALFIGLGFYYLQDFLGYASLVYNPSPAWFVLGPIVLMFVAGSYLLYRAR
His-tagged LptB2FG (ablLptB2FG), sequence (Q6FC66 1-249 partner): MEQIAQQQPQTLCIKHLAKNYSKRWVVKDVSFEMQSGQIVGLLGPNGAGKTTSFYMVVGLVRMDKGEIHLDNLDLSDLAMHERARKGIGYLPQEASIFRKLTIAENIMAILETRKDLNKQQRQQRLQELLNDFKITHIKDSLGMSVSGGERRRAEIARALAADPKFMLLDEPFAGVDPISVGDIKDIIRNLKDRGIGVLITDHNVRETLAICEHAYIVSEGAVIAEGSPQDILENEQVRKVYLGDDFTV

| Compound | MIC ([3]; Acinetobacter baylyi) | MIC [4, 5] | further results |
| --- | --- | --- | --- |
| CN1C(=O)[C@H](CCCCN)NC(=O)[C@H](CCCN)NCc2cccnc2Sc2cccc(-c3ccc(C(=O)O)cc3)c2CNC(=O)[C@@H]1Cc1c[nH]c2ccccc12 [[^3H]-RO7223280] | – | – | Binding of radiolabelled 2 to LptB2FGC [1]: not LptB2FGC; Binding of radiolabelled 2 to LptB2FG ([2]; binding dependent on presence of LPS): bound to LptB2FG; Kd ([2]; used as constraint for Ki fit): 86 nM |
| CO[C@H]1[C@H](OC(=O)c2ccc(C)[nH]2)[C@H](O)[C@@H](Oc2ccc3c(O)c(NC(=O)c4c[nH]c(C(=O)Nc5c(O)c6ccc(O[C@H]7OC(C)(C)[C@@H](OC)[C@H](OC(=O)c8ccc(C)[nH]8)[C@@H]7O)c(C)c6oc5=O)c4C)c(=O)oc3c2C)OC1(C)C [Coumermycin A1] | 0.16 µM and 0.18 µg/mL | 5 µM and 6 µg/mL | – |
| Bacitracin | – | – | MIC ([3]; A. baylyi ΔlpxM): 20 µM and 30 µg/mL; MIC [4]: 700 µg/mL; MIC ([4]; read-out: MIC): 500 µM |
| CO[C@@H]1[C@@H](OC(N)=O)[C@@H](O)[C@H](Oc2ccc3c(O)c(NC(=O)c4ccc(O)c(CC=C(C)C)c4)c(=O)oc3c2C)OC1(C)C [Novobiocin] | 0.6 µM and 0.4 µg/mL | 4 µM and 2 µg/mL | – |
| Oc1cc(Cl)ccc1Oc1ccc(Cl)cc1Cl [Triclosan] | 0.03 µM and 0.009 µg/mL | 0.126 µM and 0.036 µg/mL | – |
| CN[C@H](CC(C)C)C(=O)N[C@H]1C(=O)N[C@@H](CC(N)=O)C(=O)N[C@H]2C(=O)N[C@H]3C(=O)N[C@H](C(=O)N[C@H](C(=O)O)c4cc(O)cc(O)c4-c4cc3ccc4O)[C@H](O)c3ccc(c(Cl)c3)Oc3cc2cc(c3O[C@@H]2O[C@H](CO)[C@@H](O)[C@H](O)[C@H]2O[C@H]2C[C@](C)(N)[C@H](O)[C@H](C)O2)Oc2ccc(cc2Cl)[C@H]1O [Vancomycin] | 17 µM and 25 µg/mL | 500 µM and 700 µg/mL | – |
| CO[C@H]1/C=C/O[C@@]2(C)Oc3c(C)c(O)c4c(O)c(c(/C=N/N5CCN(C)CC5)c(O)c4c3C2=O)NC(=O)/C(C)=C\C=C\[C@H](C)[C@H](O)[C@@H](C)[C@@H](O)[C@@H](C)[C@H](OC(C)=O)[C@@H]1C [Rifampicin] | 0.6 µM and 0.5 µg/mL | 1.6 µM and 1.3 µg/mL | – |
